In patent US10383850B2, “Indazole and indole derivatives as inhibitors of retinoic acid related orphan receptor gamma (ROR gamma) for the treatment of immune-related diseases” (ORCA PHARMACEUTICALS LIMITED, priority 2014, dated 2019):

The molecules below were run on Human CD4+CCR6+ T cells (TH17 cell differentiation) (assay: Human Th17 cell differentiation assay (IL-17A in extracellular media by ELISA)). Details: 96 h, IL17A in extracellular media by sandwich ELISA, 4 days with cytokine cocktail and antiCD2/CD3/28 beads, read-out: Inhibition of TH17 cell differentiation - Mean IC50.
Assay type: cell-based
For Cc1cccc2c(C(=O)c3c(Cl)cccc3C(F)(F)F)cn(-c3ccc(C(=O)O)cc3)c12 [Compound 7, 4-[3-[2-chloro-6-(trifluoromethyl)benzoyl]-7-methyl-indol-1-yl]benzoic acid], the IC50 was 498 nM. Cc1cccc2c(C(=O)c3c(Cl)cccc3Cl)cn(-c3ccc(C(=O)O)cc3)c12 [Compound 9, 4-[3-(2,6-dichlorobenzoyl)-7-methyl-indol-1-yl]benzoic acid] was tested, and the IC50 was 1600 nM. With O=C(O)c1ccc(-n2cc(C(=O)c3c(F)cccc3OC(F)(F)F)c3cccc(F)c32)c(F)c1 [Compound 13, 3-fluoro-4-[7-fluoro-3-[2-fluoro-6-(trifluoromethoxy)benzoyl]indol-1-yl]benzoic acid] the IC50 was 181 nM. O=C(O)c1ccc(-n2cc(C(=O)c3c(F)cccc3OC(F)(F)F)c3cccc(F)c32)cc1 [Compound 12, 4-[7-fluoro-3-[2-fluoro-6-(trifluoromethoxy)benzoyl]indol-1-yl]benzoic acid] was tested, and the IC50 was 192 nM. COc1cccc(F)c1C(=O)c1nn(-c2ccc(C(=O)O)cc2)c2ccccc12 [Compound 10, 4-[3-(2-fluoro-6-methoxy-benzoyl)indazol-1-yl]benzoic acid] was tested, and the IC50 was 455 nM. For COc1cccc(F)c1C(=O)c1cn(-c2ccc(C(=O)O)cc2)c2ccccc12 [Compound 4, 4-[3-(2-fluoro-6-methoxy-benzoyl)indol-1-yl]benzoic acid], the IC50 was 1490 nM. With O=C(O)c1ccc(-n2cc(Cc3c(Cl)cccc3C(F)(F)F)c3cccnc32)cc1 [Compound 1, 4-(3-{[2-chloro-6-(trifluoromethyl)phenyl]methyl}-1H-pyrrolo[2,3-b]pyridin-1-yl)benzoic acid] the IC50 was 142 nM. For O=C(O)c1ccc(-n2cc(C(=O)c3c(F)cccc3OC(F)(F)F)c3ccccc32)cc1 [Compound 14, 4-[3-[2-fluoro-6-(trifluoromethoxy)benzoyl]indol-1-yl]benzoic acid], the IC50 was 338 nM. Work on COc1cccc(F)c1C(=O)c1cn(-c2ccc(C(=O)O)cc2)c2c(F)cccc12 [Compound 5, 4-[7-fluoro-3-(2-fluoro-6-methoxy-benzoyl)indol-1-yl]benzoic acid] yielded an IC50 of 821 nM. O=C(O)c1ccc(-n2cc(C(=O)c3c(Cl)cccc3C(F)(F)F)c3cccc(F)c32)nc1 [Compound 8, 6-[3-[2-chloro-6-(trifluoromethyl)benzoyl]-7-fluoro-indol-1-yl]pyridine-3-carboxylic acid] was tested, and the IC50 was 39.5 nM. Molecule O=C(O)c1ccc(-n2cc(Cc3c(Cl)cccc3C(F)(F)F)c3ccccc32)cc1O [Compound 6, 4-[3-[[2-chloro-6-(trifluoromethyl)phenyl]methyl]indol-1-yl]-2-hydroxy-benzoic acid] has an IC50 of 4.81 nM.

Same assay, conditions: 96 h, read-out: Inhibition of TH17 cell differentiation - Mean IC50
For O=C(O)c1ccc(-n2cc(Cc3c(Cl)cccc3C(F)(F)F)c3ccccc32)cc1 [Compound 2, 4-(3-{[2-chloro-6-(trifluoromethyl)phenyl]methyl}-1H-indol-1-yl)benzoic acid], the IC50 was 33.6 nM. For O=C(O)c1ccc(-n2cc(C(=O)c3c(Cl)cccc3C(F)(F)F)c3cncnc32)cc1 [Compound 3, 4-[5-[2-chloro-6-(trifluoromethyl)benzoyl]pyrrolo[2,3-d]pyrimidin-7-yl]benzoic acid], the IC50 was 356 nM.

What follows are molecules tested against RORγ ligand binding domain (Homo sapiens (Human), UniProt P51449) (assay: RORγ FRET assay (SRC-1 peptide binding to RORγ ligand binding domain)). Details: not given.
Chain of RORγ ligand binding domain (P51449 258-518): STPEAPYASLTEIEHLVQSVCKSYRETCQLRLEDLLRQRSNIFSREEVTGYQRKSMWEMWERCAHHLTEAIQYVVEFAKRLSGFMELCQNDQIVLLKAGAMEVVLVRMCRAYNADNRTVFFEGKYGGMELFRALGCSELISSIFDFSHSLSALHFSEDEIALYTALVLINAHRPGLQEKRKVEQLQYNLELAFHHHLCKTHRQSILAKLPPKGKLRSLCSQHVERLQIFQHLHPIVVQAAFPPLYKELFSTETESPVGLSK
Molecule O=C(O)c1ccc(-n2cc(Cc3c(Cl)cccc3C(F)(F)F)c3cccnc32)cc1 [Compound 1, 4-(3-{[2-chloro-6-(trifluoromethyl)phenyl]methyl}-1H-pyrrolo[2,3-b]pyridin-1-yl)benzoic acid] has an IC50 of 196 nM.

Same assay, conditions: read-out: RORγ FRET - Mean IC50
O=C(O)c1ccc(-n2cc(Cc3c(Cl)cccc3C(F)(F)F)c3ccccc32)cc1 [Compound 2, 4-(3-{[2-chloro-6-(trifluoromethyl)phenyl]methyl}-1H-indol-1-yl)benzoic acid] gave an IC50 of 71.8 nM.
